Data published in patent US8362259B2, “Process for the preparation of esomeprazole magnesium in a stable form” (Lek Pharmaceuticals, D.D., priority 2008, dated 2013).

Tests used:
Assay type in all cases: physicochemical
[1] = stress stability testing, HPLC related substances and degradation products; parameters: HPLC related substance RRt 0.10 / HPLC related substance RRt 0.11 / HPLC related substance RRt 0.16 / HPLC related substance RRt 0.20 / HPLC related substance RRt 1.45 / HPLC related substance RRt 1.59 / HPLC related substance RRt 1.61 / HPLC related substance RRt 2.20 / HPLC related substance RRt 2.25: unit not given here
Procedure: Illustratively, it was tested under regular pharmaceutical tests such as stress condition test (Table 1) and was compared with chemical stability of the starting amorphous esomeprazole magnesium or esomeprazole Mg dihydrate form B (Table 2).

[2] = removal of residual solvents by drying (Comparative Example 2); details: drying at high temperatures
Source text: Further removing of residual solvents was studied on amorphous esomeprazole magnesium by drying.

[3] = physical (polymorphic) stability under stress conditions; details: 14 days 40° C./75% relative humidity, 7 days 60° C.
Procedure: In addition, also physical stability of esomeprazole magnesium dihydrate form A obtained according to the present invention was tested.

[4] = 40° C./75 RH, open dish, 14 days, open vial

For `COc1ccc2[n-]c([S@@+]([O-])Cc3ncc(C)c(OC)c3C)nc2c1.COc1ccc2[n-]c([S@@+]([O-])Cc3ncc(C)c(OC)c3C)nc2c1.O.O.[Mg+2]`, the “chemical stability compared among the three forms of esomeprazole magnesium” value ([1]; stress stability testing, all three forms compared) was “chemically the most stable form”.
In the case of “magnesium bis(5-methoxy-2-[(S)-[(4-methoxy-3,5-dimethyl-2-pyridinyl)methyl]sulfinyl]-1H-benzimidazole) [Amorphous esomeprazole magnesium]”, the “HPLC - Related substances and degradation products: Sum” value (shortened to “HPLC … Sum”) [1, 4] is reported as 0.43, the “HPLC related substance OMP-benzimidazole (Ph. Eur. Imp. A)” value [1, 4] is reported as 0.04 and the “HPLC related substance RRt 0.10” value [1, 4] is reported as 0.04. For the same compound, the “HPLC related substance RRt 0.11” value [1, 4] was 0.09, the “HPLC related substance RRt 0.16” value [1, 4] was 0.07 and the “HPLC related substance RRt 0.20” value [1, 4] was 0.04. The “HPLC related substance RRt 1.45” value [1, 4] was 0.06, the “HPLC related substance RRt 2.20” value [1, 4] was 0.09 and the “HPLC … Sum” value ([1]; 60° C., 7 days, vial) was 0.79. The “HPLC related substance OMP-N-oxide (Ph. Eur. Imp. E)” value ([1]; 60° C., 7 days, vial) was 0.03, the “HPLC related substance OMP-N-sufone (Ph. Eur. Imp. D)” value ([1]; 60° C., 7 days, vial) was 0.03 and the “HPLC related substance OMP-benzimidazole (Ph. Eur. Imp. A)” value ([1]; 60° C., 7 days, vial) was 0.06. The “HPLC related substance RRt 0.11” value ([1]; 60° C., 7 days, vial) was 0.12, the “HPLC related substance RRt 0.16” value ([1]; 60° C., 7 days, vial) was 0.18 and the “HPLC related substance RRt 0.20” value ([1]; 60° C., 7 days, vial) was 0.06. The “HPLC related substance RRt 1.45” value ([1]; 60° C., 7 days, vial) was 0.15, the “HPLC related substance RRt 2.20” value ([1]; 60° C., 7 days, vial) was 0.07 and the “HPLC related substance RRt 2.25” value ([1]; 60° C., 7 days, vial) was 0.09. For the same compound, the “HPLC … Sum” value ([1]; Initial analysis) was 0.10, the “HPLC related substance RRt 0.16” value ([1]; Initial analysis) was 0.06 and the “HPLC related substance RRt 1.45” value ([1]; Initial analysis) was 0.04. For the same compound, the “chemical stability on drying to remove residual solvents” value [2] was “accompanied by chemical decomposition”.
In the case of “magnesium bis(5-methoxy-2-[(S)-[(4-methoxy-3,5-dimethyl-2-pyridinyl)methyl]sulfinyl]-1H-benzimidazole) [Esomeprazole magnesium dihydrate form B]”, the “HPLC … Sum” value [1, 4] is reported as 0.14, the “HPLC related substance RRt 1.59” value [1, 4] is reported as 0.06 and the “HPLC related substance RRt 1.61” value [1, 4] is reported as 0.06. For the same compound, the “HPLC … Sum” value ([1]; 60° C., 7 days, vial) was 0.07, the “HPLC related substance Omeprazole-N-methyl” value ([1]; 60° C., 7 days, vial) was 0.07 and the “HPLC … Sum” value ([1]; Initial analysis) was less than 0.05.
With “magnesium bis(5-methoxy-2-[(S)-[(4-methoxy-3,5-dimethyl-2-pyridinyl)methyl]sulfinyl]-1H-benzimidazole) [Esomeprazole magnesium dihydrate form A]” the Chromatographic purity [1, 4] was 99.85, the “HPLC … Sum” value [1, 4] was “≦0.05” and the Chromatographic purity ([1]; 60° C., 7 days, vial) was 99.82. For the same compound, the “HPLC … Sum” value ([1]; 60° C., 7 days, vial) was “≦0.05”, the Chromatographic purity ([1]; Initial analysis) was 99.85 and the “physical stability of the polymorphic form” value [3] was “stable”.
